{"source": "patent US9266939B2", "about": "“Compositions comprising natriuretic peptides and methods of use thereof” (Alexion Pharmaceuticals, Inc., priority 2010, dated 2016)", "key": {"[1]": {"test": "Active NC2st concentration in serum of treated Fgfr3^369/+ mice (cGMP assay)", "format": "in vivo", "settings": "13-18 hours after the last dose", "experimental": "At necropsy (Day 64), blood samples were collected by cardiac puncture under isoflurane anesthesia 13-18 hours after the last dose. Blood samples were collected into Microvette 500Z/gel tube (Sarstedt, serum/gel clotting activator, #20.1344), incubated at room temperature for 30 to 60 minutes and centrifuged at 10,000×g for five minutes at 2-8° C. 100 μl of serum was then transferred into 0.5 mL tubes (Sarstedt, #72.699), and the remainder was transferred in a second tube. The two tubes were frozen in liquid nitrogen and stored at −80° C. until analysis."}, "[2]": {"test_system": "Fgfr3^369/+ mice", "test": "Efficacy of SC NC2st on rescue of the ACH bone phenotype in Fgfr3^369/+ mice", "format": "in vivo", "settings": "61 days", "excerpt": "The study was designed to evaluate the effect of daily subcutaneous (SC) administration of NC2 Streptag (NC2st) on rescue of the achondroplasia skeletal disorders in the mouse model of the disease, the Fgfr3^369/+ mice.\nFgfr3^369/+ mice were created by an amino acid substitution (Gly to Cys) at position 369 in the mouse Fibroblast Growth Factor Receptor 3 (Fgfr3) gene (Chen et al., J. Clin. Invest. 104(11): 1517-1525, 1999). Substitution 369 (Gly369Cys) in mouse Fgfr3 gene causes dwarfism with features mimicking human achondroplasia. […] Thus, the Fgfr3^369+ mouse is an appropriate model for non-clinical studies evaluating the treatment of achondroplasia.\nThe study was an open label parallel and randomized control study. Treatments were open label, and Table 5 provides details of the treatment groups.\nInjections were scheduled twice daily at approximately 8:00 to 10:00 AM and 8:00 to 10:00 PM. The dose volume was set at 4 ml/kg. The actual volume administered to each mouse was calculated and adjusted based on the daily body weight of each animal measured prior to the AM injection. Vehicle or NC2st was injected SC twice daily into the scapular or lumbar region of Fgfr3^369/+ animals from the third day after birth to 63 days of age.\nEx vivo radiographs of whole body, rib cage and skull were taken using a Faxitron model MX-20 DC4 under constant conditions (26 kV, 10 sec at 1×, 3× and 3× magnification, respectively). Bone measurements were performed on the radiographic images of all animals in a blinded fashion using the software Image Processing and Analysis in Java (ImageJ).\nBone samples were cleaned of excess tissue (not scraped) and fixed. Length of femur and tibia was measured using a caliper."}, "[3]": {"target": "T1, NPR-B (Homo sapiens, UniProt P20594)", "T1 sequence (P20594 23-1047)": "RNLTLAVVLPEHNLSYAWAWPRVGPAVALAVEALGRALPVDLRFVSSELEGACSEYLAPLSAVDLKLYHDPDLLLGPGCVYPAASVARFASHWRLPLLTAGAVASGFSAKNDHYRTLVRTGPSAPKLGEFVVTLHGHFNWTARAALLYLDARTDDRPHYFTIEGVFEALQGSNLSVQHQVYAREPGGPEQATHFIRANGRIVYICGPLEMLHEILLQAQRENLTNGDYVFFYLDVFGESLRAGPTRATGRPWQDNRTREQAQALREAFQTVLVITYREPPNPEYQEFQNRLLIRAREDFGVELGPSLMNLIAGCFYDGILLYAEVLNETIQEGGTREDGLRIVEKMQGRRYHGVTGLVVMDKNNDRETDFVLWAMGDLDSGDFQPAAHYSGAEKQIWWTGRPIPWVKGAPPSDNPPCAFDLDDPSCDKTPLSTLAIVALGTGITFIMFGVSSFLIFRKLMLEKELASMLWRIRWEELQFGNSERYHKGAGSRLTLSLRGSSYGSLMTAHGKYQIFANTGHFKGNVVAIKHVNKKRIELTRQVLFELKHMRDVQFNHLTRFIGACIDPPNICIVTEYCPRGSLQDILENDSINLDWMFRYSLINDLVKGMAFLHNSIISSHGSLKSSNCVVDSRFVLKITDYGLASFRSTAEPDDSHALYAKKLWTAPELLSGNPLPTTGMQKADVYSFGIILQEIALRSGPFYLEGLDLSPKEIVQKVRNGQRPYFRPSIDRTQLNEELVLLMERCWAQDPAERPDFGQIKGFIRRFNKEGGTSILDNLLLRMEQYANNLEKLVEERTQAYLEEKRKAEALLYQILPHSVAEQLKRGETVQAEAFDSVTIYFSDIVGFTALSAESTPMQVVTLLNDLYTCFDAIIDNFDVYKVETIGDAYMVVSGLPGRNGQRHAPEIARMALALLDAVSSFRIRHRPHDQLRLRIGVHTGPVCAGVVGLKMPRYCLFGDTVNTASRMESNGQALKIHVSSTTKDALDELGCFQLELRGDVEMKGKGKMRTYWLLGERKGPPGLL", "test": "Whole cell guanylyl cyclase (cGMP) assay, NPR-B", "format": "cell-based", "design": "expressed in transfected cells", "how_it_was_run": "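HEK293S cells, transiently transfected or stably expressing human NPR-B, treated in triplicate with increasing test-protein concentrations in serum-free DMEM with 1 mM IBMX and 0.5% BSA, 37° C, 30 min to one hour; CNP as reference. Lysate cGMP measured by Catchpoint kit; four-parameter logistic fit of dose-response curves.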"}, "[4]": {"target": "T1, NPR-B", "test": "Membrane guanylyl cyclase (cGMP) assay, NPR-B", "format": "biochemical", "settings": "second NPR-B membrane assay (FIG. 21B)"}, "[5]": {"settings": "Tx-100: 100 mg/kg SC twice daily"}, "[6]": {"settings": "NPR-B whole cell assay (FIG. 21C)"}, "[7]": {"settings": "projected from relative activities of CNP22 and NC2st in NPR-B whole cell assays"}}, "note": "Marks after values point to notes of the source that are not given here."}
{"substance": "NC2st: Fc-CNP fusion: Strep-tag II, TEV site, human IgG-1 Fc, 16-amino acid glycine-rich linker, CNP22; SEQ ID NO: 502", "values": [{"measurement": "mean NC2st blood serum level (active concentration)", "setting": "[1]; Tx10 group", "value": "above the projected threshold for 50% reversal of the ACH phenotype"}, {"measurement": "mean NC2st blood serum level (active concentration)", "setting": "[1]; Tx100 group", "value": "nearly three-fold above the projected threshold for 100% reversal"}, {"measurement": "Cervical vertebrae length, % change vs Vehicle", "setting": "[2]; Tx-10: 10 mg/kg SC twice daily", "value": "+17.6%*"}, {"measurement": "Femur length, % change vs Vehicle", "setting": "[2]; Tx-10: 10 mg/kg SC twice daily", "value": "+3.85%*"}, {"measurement": "Lumbar vertebrae length, % change vs Vehicle", "setting": "[2]; Tx-10: 10 mg/kg SC twice daily", "value": "+8.64%*"}, {"measurement": "Naso-anal length, % change vs Vehicle", "setting": "[2]; Tx-10: 10 mg/kg SC twice daily", "value": "+8.99%*"}, {"measurement": "Neck-anal length, % change vs Vehicle", "setting": "[2]; Tx-10: 10 mg/kg SC twice daily", "value": "+12.4%*"}, {"measurement": "Occipital-front distance, % change vs Vehicle", "setting": "[2]; Tx-10: 10 mg/kg SC twice daily", "value": "+0.89%"}, {"measurement": "Skull Circularity index, % change vs Vehicle", "setting": "[2]; Tx-10: 10 mg/kg SC twice daily", "value": "−1.52", "unit": "%"}, {"measurement": "Sternum length, % change vs Vehicle", "setting": "[2]; Tx-10: 10 mg/kg SC twice daily", "value": "+6.67%*"}, {"measurement": "Tail length, % change vs Vehicle", "setting": "[2]; Tx-10: 10 mg/kg SC twice daily", "value": "+7.38%*"}, {"measurement": "Thoracic vertebrae length, % change vs Vehicle", "setting": "[2]; Tx-10: 10 mg/kg SC twice daily", "value": "+11.6%*"}, {"measurement": "Tibia length, % change vs Vehicle", "setting": "[2]; Tx-10: 10 mg/kg SC twice daily", "value": "+6.50%*"}, {"measurement": "Total CTL vertebrae length, % change vs Vehicle", "setting": "[2]; Tx-10: 10 mg/kg SC twice daily", "value": "+11.6%*"}, {"measurement": "Cervical vertebrae length, % change vs Vehicle", "setting": "[2]; [5]", "value": "+24.3%*"}, {"measurement": "Femur length, % change vs Vehicle", "setting": "[2]; [5]", "value": "+3.85%*"}, {"measurement": "Lumbar vertebrae length, % change vs Vehicle", "setting": "[2]; [5]", "value": "+13.6%*"}, {"measurement": "Naso-anal length, % change vs Vehicle", "setting": "[2]; [5]", "value": "+14.3%*"}, {"measurement": "Neck-anal length, % change vs Vehicle", "setting": "[2]; [5]", "value": "+21.1%*"}, {"measurement": "Occipital-front distance, % change vs Vehicle", "setting": "[2]; [5]", "value": "+0.76%"}, {"measurement": "Skull Circularity index, % change vs Vehicle", "setting": "[2]; [5]", "value": "−2.88", "unit": "%*"}, {"measurement": "Sternum length, % change vs Vehicle", "setting": "[2]; [5]", "value": "+13.7%*"}, {"measurement": "Tail length, % change vs Vehicle", "setting": "[2]; [5]", "value": "+7.22%*"}, {"measurement": "Thoracic vertebrae length, % change vs Vehicle", "setting": "[2]; [5]", "value": "+25.3%*"}, {"measurement": "Tibia length, % change vs Vehicle", "setting": "[2]; [5]", "value": "+8.13%*"}, {"measurement": "Total CTL vertebrae length, % change vs Vehicle", "setting": "[2]; [5]", "value": "+20.9%*"}, {"measurement": "efficacy relative to CNP", "setting": "[3]; [6]", "value": 84, "unit": "%"}, {"measurement": "potency relative to CNP (times less than that of CNP)", "setting": "[3]; [6]", "value": 83, "unit": "times"}, {"measurement": "projected targeted NC2st concentration to achieve 50% reversal of ACH phenotype", "setting": "[3]; [7]", "value": "345 (±95 S.D.) nM"}, {"measurement": "projected targeted NC2st concentration to achieve >100% reversal of ACH phenotype", "setting": "[3]; [7]", "value": "1214 (±446 S.D.) nM"}, {"measurement": "efficacy relative to CNP", "setting": "[4]", "value": 61, "unit": "%"}, {"measurement": "potency relative to CNP (times less than that of CNP)", "setting": "[4]", "value": 19, "unit": "times"}]}
